What was measured:
Assay in all cases: SignalChem radioisotope protein kinase assay
Type in all cases: biochemical
Conditions in all cases: 5 μl of 100 μM stock solution in 25 μl
SGK1 = target: T1, SGK1 (Homo sapiens, UniProt O00141)
T1 construct: purchased SignalChem
Description: (§1) The various protein kinase targets to be employed in the kinase profiling assay were cloned, expressed and purified in-house at SignalChem (Richmond, BC, Canada) using proprietary methods. Quality control testing is routinely performed on each of the SignalChem targets to ensure compliance to acceptable standards. Protein substrates employed in the target profiling process were synthesized internally. ^33P-ATP was purchased from PerkinElmer. All other materials were of standard grade. Compound 10 (FIG. 4) was supplied to SignalChem in a powder form. It was reconstituted in DMSO to form a stock solution which was then diluted with 10% DMSO to form a working stock solution (100 μM) that was then profiled against the various protein kinase targets. The assay conditions for the various protein kinase targets were optimized to yield acceptable enzymatic activity. In addition, the assays were optimized to give high signal-to-noise ratio.
(§2) SignalChem uses a radioisotope assay format for profiling evaluation of protein kinase targets. Protein kinase assays were performed in triplicate at ambient temperature for 20-40 min (depending on the target) in a final volume of 25 μl according to the following assay reaction recipe: • Component 1: 5 μl of diluted active protein kinase target (˜10-40 nM final protein concentration in the assay) • Component 2: 5 μl of stock solution of substrate (1-5 μg of peptide or protein substrate) • Component 3: 5 μl of kinase assay buffer or protein kinase activator in kinase assay buffer • Component 4: 5 μl of Compound 10 (100 μM stock solution) or 10% DMSO • Component 5: 5 μl of 33P-ATP (25 μM stock solution, 0.8 μCi)
(§3) The assay was initiated by the addition of ^33P-ATP and the reaction mixture incubated at ambient temperature for 20-40 minutes, depending on the protein kinase target. After the incubation period, the assay was terminated by spotting 10 μl of the reaction mixture onto a Millipore Multiscreen plate. The Millipore Multiscreen plate was washed 3 times for approximately 15 minutes each in a 1% phosphoric acid solution. The radioactivity on the P81 plate was counted in the presence of scintillation fluid in a Trilux scintillation counter. Blank control, which included all the assay components except the addition of the appropriate substrate (replaced with equal volume of assay dilution buffer), was set up for each protein kinase target. The corrected activity for each protein kinase target was determined by removing the blank control value.

AKT1 = AKT1 (Homo sapiens, UniProt P31749)
Description: as §1, §2, §3

PAK4 = PAK4 (Homo sapiens, UniProt O96013)
Description: as §1, §2, §3

RAF1(EE) = target: T2, RAF1(EE) (Homo sapiens, UniProt P04049, Y340E/Y341E)
T2 construct: purchased SignalChem
Description: as §1, §2, §3

HCK = HCK (Homo sapiens, UniProt P08631)
Sequence of HCK (P08631 whole entry, species assumed): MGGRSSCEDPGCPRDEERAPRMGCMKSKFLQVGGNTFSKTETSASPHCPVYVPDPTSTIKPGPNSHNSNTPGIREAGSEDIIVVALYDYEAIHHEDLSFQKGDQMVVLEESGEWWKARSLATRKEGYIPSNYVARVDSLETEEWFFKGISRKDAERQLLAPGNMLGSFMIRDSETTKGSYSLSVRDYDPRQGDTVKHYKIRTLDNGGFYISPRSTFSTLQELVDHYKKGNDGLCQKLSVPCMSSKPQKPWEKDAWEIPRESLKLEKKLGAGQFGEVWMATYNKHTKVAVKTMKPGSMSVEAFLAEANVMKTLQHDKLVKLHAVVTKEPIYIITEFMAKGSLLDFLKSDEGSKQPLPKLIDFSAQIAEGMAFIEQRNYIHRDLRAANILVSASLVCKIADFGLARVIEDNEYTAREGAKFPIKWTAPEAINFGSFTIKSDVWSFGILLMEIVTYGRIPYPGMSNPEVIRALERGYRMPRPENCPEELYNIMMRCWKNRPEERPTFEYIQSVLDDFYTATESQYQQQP
Description: as §1, §2, §3

PDK1 = PDK1 (Homo sapiens, UniProt O15530)
Sequence of PDK1 (O15530 whole entry): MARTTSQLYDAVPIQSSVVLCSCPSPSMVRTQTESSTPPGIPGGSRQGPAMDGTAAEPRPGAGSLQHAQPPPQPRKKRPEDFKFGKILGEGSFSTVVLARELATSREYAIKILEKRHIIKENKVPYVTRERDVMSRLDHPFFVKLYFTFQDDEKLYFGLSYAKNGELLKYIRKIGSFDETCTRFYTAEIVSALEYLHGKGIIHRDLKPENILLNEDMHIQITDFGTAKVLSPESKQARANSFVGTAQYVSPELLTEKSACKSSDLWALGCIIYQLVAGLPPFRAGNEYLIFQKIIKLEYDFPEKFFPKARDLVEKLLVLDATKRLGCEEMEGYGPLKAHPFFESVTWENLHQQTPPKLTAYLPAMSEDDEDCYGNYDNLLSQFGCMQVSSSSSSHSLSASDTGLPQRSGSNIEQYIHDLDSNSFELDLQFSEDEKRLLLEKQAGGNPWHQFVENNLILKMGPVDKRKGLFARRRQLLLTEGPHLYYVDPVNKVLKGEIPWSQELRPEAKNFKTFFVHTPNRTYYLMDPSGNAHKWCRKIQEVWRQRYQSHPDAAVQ
Description: as §1, §2, §3

FRK = FRK (Homo sapiens, UniProt P42685)
Description: as §1, §2, §3

AKT2 = AKT2 (Homo sapiens, UniProt P31751)
Description: as §1, §2, §3

PIM1 = PIM1 (Homo sapiens, UniProt P11309)
Sequence of PIM1 (P11309 whole entry, species assumed): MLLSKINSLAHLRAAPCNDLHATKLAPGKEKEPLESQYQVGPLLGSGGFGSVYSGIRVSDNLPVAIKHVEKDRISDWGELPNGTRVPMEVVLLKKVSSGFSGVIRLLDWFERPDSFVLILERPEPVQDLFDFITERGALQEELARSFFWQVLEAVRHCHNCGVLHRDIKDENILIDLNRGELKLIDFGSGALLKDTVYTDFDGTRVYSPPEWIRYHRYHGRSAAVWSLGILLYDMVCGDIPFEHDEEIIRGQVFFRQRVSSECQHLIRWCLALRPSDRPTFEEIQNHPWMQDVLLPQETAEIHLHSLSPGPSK
Description: as §1, §2, §3

AURORA A = AURORA A (Homo sapiens, UniProt O14965)
Description: as §1, §2, §3

SRC = target: T3, SRC (Homo sapiens, UniProt P12931)
T3 construct: purchased SignalChem
T3 sequence (P12931 whole entry, species assumed): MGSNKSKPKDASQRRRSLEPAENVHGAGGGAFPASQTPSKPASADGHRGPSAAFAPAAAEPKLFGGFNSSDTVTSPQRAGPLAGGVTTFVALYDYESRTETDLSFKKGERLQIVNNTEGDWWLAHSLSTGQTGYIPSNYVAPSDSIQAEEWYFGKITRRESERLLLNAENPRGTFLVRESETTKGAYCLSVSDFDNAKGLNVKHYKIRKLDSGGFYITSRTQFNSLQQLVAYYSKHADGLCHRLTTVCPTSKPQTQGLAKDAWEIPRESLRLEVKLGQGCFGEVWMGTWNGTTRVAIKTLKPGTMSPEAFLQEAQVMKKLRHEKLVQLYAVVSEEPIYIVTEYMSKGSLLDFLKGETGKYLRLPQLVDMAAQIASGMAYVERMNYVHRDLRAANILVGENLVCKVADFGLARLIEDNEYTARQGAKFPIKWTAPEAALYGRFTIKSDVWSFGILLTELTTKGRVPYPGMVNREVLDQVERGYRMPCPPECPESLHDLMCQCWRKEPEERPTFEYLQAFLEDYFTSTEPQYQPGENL
Description: as §1, §2, §3

HER2 = HER2 (Homo sapiens, UniProt P04626)
Description: as §1, §2, §3

BRK = BRK (Homo sapiens, UniProt Q13882)
Description: as §1, §2, §3

PKCα = target: T4, PKCα (Homo sapiens, UniProt P17252)
T4 construct: purchased SignalChem
Description: as §1, §2, §3

LCK = LCK (Homo sapiens, UniProt P06239)
Description: as §1, §2, §3

MST4 = MST4 (Homo sapiens, UniProt Q9P289)
Description: as §1, §2, §3

ERK2 = ERK2 (Homo sapiens, UniProt P28482)
Sequence of ERK2 (P28482 whole entry, species assumed): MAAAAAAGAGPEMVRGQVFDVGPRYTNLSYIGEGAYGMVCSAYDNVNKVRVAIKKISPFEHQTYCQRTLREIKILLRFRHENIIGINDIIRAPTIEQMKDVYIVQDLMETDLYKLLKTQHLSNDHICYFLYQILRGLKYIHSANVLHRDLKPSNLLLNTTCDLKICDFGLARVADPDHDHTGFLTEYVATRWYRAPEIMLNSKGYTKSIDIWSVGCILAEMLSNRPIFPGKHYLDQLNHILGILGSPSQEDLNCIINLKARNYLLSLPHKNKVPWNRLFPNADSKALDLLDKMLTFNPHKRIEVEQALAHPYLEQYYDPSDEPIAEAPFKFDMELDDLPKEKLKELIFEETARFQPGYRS
Description: as §1, §2, §3

RSK1 = target: T5, RSK1 (Homo sapiens, UniProt Q15418)
T5 construct: purchased SignalChem
Description: as §1, §2, §3

ABL2 = ABL2 (Homo sapiens, UniProt P42684)
Description: as §1, §2, §3

PDGFRα = PDGFRα (Homo sapiens, UniProt P16234)
Description: as §1, §2, §3

TRKA = target: T6, TRKA (Homo sapiens, UniProt P04629)
T6 construct: purchased SignalChem
Description: as §1, §2, §3

FLT3 = FLT3 (Homo sapiens, UniProt P36888)
Description: as §1, §2, §3

AKT3 = AKT3 (Homo sapiens, UniProt Q9Y243)
Sequence of AKT3 (Q9Y243 whole entry, species assumed): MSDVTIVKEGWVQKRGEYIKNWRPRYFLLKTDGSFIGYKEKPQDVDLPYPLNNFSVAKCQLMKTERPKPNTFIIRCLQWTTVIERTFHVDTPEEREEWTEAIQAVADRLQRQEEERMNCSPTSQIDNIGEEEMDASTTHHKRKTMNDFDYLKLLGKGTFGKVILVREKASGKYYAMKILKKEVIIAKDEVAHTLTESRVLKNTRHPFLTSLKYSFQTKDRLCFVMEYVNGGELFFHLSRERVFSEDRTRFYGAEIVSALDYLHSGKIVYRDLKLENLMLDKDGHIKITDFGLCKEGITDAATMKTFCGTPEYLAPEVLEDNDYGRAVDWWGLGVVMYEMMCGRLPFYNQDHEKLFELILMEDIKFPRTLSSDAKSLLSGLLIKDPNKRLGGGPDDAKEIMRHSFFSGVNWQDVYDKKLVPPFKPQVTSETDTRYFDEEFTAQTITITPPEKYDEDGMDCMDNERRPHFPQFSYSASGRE
Description: as §1, §2, §3

p70S6K = p70S6K (Homo sapiens, UniProt P23443)
Description: as §1, §2, §3

MARK1 = MARK1 (Homo sapiens, UniProt Q9P0L2)
Description: as §1, §2, §3

FER = FER (Homo sapiens, UniProt P16591)
Sequence of FER (P16591 whole entry, species assumed): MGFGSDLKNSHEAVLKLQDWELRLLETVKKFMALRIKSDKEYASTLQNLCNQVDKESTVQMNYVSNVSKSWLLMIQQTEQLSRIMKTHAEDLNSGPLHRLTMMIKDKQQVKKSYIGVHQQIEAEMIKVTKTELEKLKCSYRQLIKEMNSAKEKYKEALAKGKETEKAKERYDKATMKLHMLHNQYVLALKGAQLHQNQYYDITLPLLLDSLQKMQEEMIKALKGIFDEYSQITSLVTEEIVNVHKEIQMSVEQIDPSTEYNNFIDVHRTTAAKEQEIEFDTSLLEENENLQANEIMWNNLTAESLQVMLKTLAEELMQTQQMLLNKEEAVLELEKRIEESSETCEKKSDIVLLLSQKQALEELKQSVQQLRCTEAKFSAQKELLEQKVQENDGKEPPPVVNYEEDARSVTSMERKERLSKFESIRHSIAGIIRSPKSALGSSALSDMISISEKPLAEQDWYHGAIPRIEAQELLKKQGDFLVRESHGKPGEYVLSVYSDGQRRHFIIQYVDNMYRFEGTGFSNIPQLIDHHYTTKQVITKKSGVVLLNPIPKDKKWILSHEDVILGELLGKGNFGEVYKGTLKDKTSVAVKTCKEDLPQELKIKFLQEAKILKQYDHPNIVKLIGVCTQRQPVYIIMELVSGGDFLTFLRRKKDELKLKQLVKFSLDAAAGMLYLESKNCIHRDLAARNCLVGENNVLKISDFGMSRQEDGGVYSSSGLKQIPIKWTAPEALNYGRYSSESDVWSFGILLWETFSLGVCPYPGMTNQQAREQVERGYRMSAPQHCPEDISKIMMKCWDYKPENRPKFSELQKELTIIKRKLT
Description: as §1, §2, §3

ABL1 = ABL1 (Homo sapiens, UniProt P00519)
Description: as §1, §2, §3

p38δ = p38δ (Homo sapiens, UniProt O15264)
Description: as §1, §2, §3

LYN B = LYN B (Homo sapiens, UniProt P07948)
Description: as §1, §2, §3

T1 sequence (O00141 whole entry, species assumed): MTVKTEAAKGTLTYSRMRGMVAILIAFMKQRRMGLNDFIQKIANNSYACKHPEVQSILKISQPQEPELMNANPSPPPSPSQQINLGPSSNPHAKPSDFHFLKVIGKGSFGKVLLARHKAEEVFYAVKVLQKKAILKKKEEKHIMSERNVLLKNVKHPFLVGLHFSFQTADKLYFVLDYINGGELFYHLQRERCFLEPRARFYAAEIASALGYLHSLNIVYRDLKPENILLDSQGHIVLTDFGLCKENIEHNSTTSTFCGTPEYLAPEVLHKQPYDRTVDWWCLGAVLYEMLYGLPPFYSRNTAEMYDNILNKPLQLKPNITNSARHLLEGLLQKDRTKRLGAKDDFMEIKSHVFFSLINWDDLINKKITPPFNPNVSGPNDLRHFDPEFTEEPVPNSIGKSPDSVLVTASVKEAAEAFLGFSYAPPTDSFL

CCOC(=O)C[C@@H]1C(O[Si](C)(C)C(C)(C)C)[C@H](n2cnc3c(NC(=O)Nc4ccccc4)ncnc32)O[C@@H]1CNC(=O)NC (some centres unmarked) [Compound 10]
% Activity Change (SGK1): 36%
% Activity Change (AKT1): 2%
% Activity Change (PAK4): −20%
% Activity Change (RAF1(EE)): 0%
% Activity Change (HCK): 18%
% Activity Change (PDK1): 8%
% Activity Change (FRK): 24%
% Activity Change (AKT2): 27%
% Activity Change (PIM1): 51%
% Activity Change (AURORA A): 1%
% Activity Change (SRC): −2%
% Activity Change (HER2): 4%
% Activity Change (BRK): 2%
% Activity Change (PKCα): 36%
% Activity Change (LCK): 30%
% Activity Change (MST4): 47%
% Activity Change (ERK2): −4%
% Activity Change (RSK1): 4%
% Activity Change (ABL2): 8%
% Activity Change (PDGFRα): −2%
% Activity Change (TRKA): −6%
% Activity Change (FLT3): 11%
% Activity Change (AKT3): 52%
% Activity Change (p70S6K): −1%
% Activity Change (MARK1): 5%
% Activity Change (FER): −3%
% Activity Change (ABL1): 0%
% Activity Change (p38δ): 5%
% Activity Change (LYN B): 12%
